Among the data in PubChem BioAssay AID328 (DTP/NCI, 2004) are T/C values, retold here.

This assay deals with BDF1 mice, P388 leukemia ip, median survival T/C. Put plainly: NCI In Vivo Anticancer Drug Screen. Data for tumor model P388 Leukemia (intraperitoneal) in B6D2F1 (BDF1) mice. As to conditions: endpoint: median survival time, higher = longer survival. The procedure, abridged: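 Mice carrying the transplantable tumour receive compound or vehicle. Survival is followed in each arm, and the treated measure is divided by the vehicle measure.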

Setting [1] is: dose: 100.0 mg/kg/injection, schedule: Q04DX003 (ip), vehicle: saline.
Where [2] appears, read: dose: 200.0 mg/kg/injection, schedule: Q01DX009 (ip), vehicle: Klucel (hydroxypropylcellulose) (HPC).
The mark [3] stands for this setting: dose: 400.0 mg/kg/injection, schedule: Q01DX009 (ip), vehicle: Klucel (hydroxypropylcellulose) (HPC).
Where [4] appears, read: dose: 100.0 mg/kg/injection, schedule: Q01DX009 (ip), vehicle: Klucel (hydroxypropylcellulose) (HPC).
[5] abbreviates: dose: 100.0 mg/kg/injection, schedule: Q01DX009 (ip), vehicle: saline with Tween-80.
[6] abbreviates: dose: 200.0 mg/kg/injection, schedule: Q01DX009 (ip), vehicle: saline with Tween-80.
Where [7] appears, read: dose: 12.5 mg/kg/injection, schedule: Q01DX009 (ip), vehicle: saline with Tween-80.
Setting [8] is: dose: 25.0 mg/kg/injection, schedule: Q01DX009 (ip), vehicle: saline with Tween-80.
The mark [9] stands for this setting: dose: 50.0 mg/kg/injection, schedule: Q01DX009 (ip), vehicle: saline with Tween-80.
Where [10] appears, read: dose: 100.0 mg/kg/injection, schedule: Q04DX003 (ip), vehicle: other.
The mark [11] stands for this setting: dose: 200.0 mg/kg/injection, schedule: Q04DX003 (ip), vehicle: other.
Where [12] appears, read: dose: 400.0 mg/kg/injection, schedule: Q04DX003 (ip), vehicle: other.

Structures are written as SMILES. “And” between values parts separate entries of the source, which are not always exact repeats. Identical values can stand only once. Inconclusive results and toxic doses are left out.

Regarding `COc1cc2cc(c1Cl)N(C)C(=O)CC(OC(C)=O)C1(C)OC1C(C)C1CC(O)(NC(=O)O1)C(OC)C=C/C=C(\C)C2` (configuration not stated), the T/C (dose: 0.2 micrograms/kg/injection, schedule: Q01DX009 (ip), vehicle: saline + alcohol) is 90 % of control; the T/C (dose: 0.4 micrograms/kg/injection, schedule: Q01DX009 (ip), vehicle: saline + alcohol) was 95 % of control; the T/C (dose: 0.8 micrograms/kg/injection, schedule: Q01DX009 (ip), vehicle: saline + alcohol) was 95 % of control and 110 % of control; the T/C (dose: 1.5 micrograms/kg/injection, schedule: Q01DX009 (ip), vehicle: saline + alcohol) is 150 % of control; the T/C (dose: 1.6 micrograms/kg/injection, schedule: Q01DX009 (ip), vehicle: saline + alcohol) is 100 % of control; the T/C (dose: 3.1 micrograms/kg/injection, schedule: Q01DX009 (ip), vehicle: saline + alcohol) was 110 % of control. Further, the T/C runs as follows: (dose: 6.2 micrograms/kg/injection, schedule: Q01DX009 (ip), vehicle: saline + alcohol) 150 % of control; (dose: 12.5 micrograms/kg/injection, schedule: Q01DX009 (ip), vehicle: saline + alcohol) 158 % of control; (dose: 25.0 micrograms/kg/injection, schedule: Q01DX009 (ip), vehicle: saline + alcohol) 170 % of control and 173 % of control; (dose: 50.0 micrograms/kg/injection, schedule: Q01DX009 (ip), vehicle: saline + alcohol) 183 % of control (2×) and 190 % of control; (dose: 100.0 micrograms/kg/injection, schedule: Q01DX009 (ip), vehicle: saline + alcohol) 230 % of control and 204 % of control; (dose: 200.0 micrograms/kg/injection, schedule: Q01DX009 (ip), vehicle: saline + alcohol) 100 % of control.
On to `COc1ccc(/C=C2\C(=O)C(c3ccccc3)N(c3ccccc3)C2=O)cc1` (configuration not stated), for which, where the note is “dose: 400.0 mg/kg/injection, schedule: Q04DX002 (ip), vehicle: saline with Tween-80”, the T/C is 88 % of control.
Turning to `CCOC(=O)C1(C(=O)OCC)COC(C)(C)OC1`, the T/C was 115 % of control (dose: 50.0 mg/kg/injection, schedule: Q01DX009 (ip), vehicle: Klucel (hydroxypropylcellulose) (HPC)); 104 % of control under setting [1]; 118 % of control (dose: 175.0 mg/kg/injection, schedule: Q04DX003 (ip), vehicle: saline); 105 % of control under setting [2]; 100 % of control and 113 % of control (dose: 200.0 mg/kg/injection, schedule: Q04DX003 (ip), vehicle: saline); 113 % of control (dose: 265.0 mg/kg/injection, schedule: Q04DX003 (ip), vehicle: saline). The T/C is 105 % of control under setting [3]; 113 % of control and 122 % of control (dose: 400.0 mg/kg/injection, schedule: Q04DX003 (ip), vehicle: saline); 109 % of control (dose: 600.0 mg/kg/injection, schedule: Q04DX003 (ip), vehicle: saline).
For `O=C(CCCl)N1CCN(C(=O)CCCl)CC1`, the T/C reads like this: (dose: 66.0 mg/kg/injection, schedule: Q01DX009 (ip), vehicle: Klucel (hydroxypropylcellulose) (HPC)) 104 % of control; under setting [4], 90 % of control; (dose: 100.0 mg/kg/injection, schedule: Q04DX003 (ip), vehicle: saline sonified) 116 % of control; (dose: 150.0 mg/kg/injection, schedule: Q01DX009 (ip), vehicle: Klucel (hydroxypropylcellulose) (HPC)) 113 % of control; (dose: 200.0 mg/kg/injection, schedule: Q04DX003 (ip), vehicle: saline sonified) 108 % of control; under setting [3], 95 % of control. The T/C (dose: 400.0 mg/kg/injection, schedule: Q04DX003 (ip), vehicle: saline sonified) is 120 % of control.
On to `COc1ccc(NC2=CC(C)(C(=O)O)OC2=O)cc1` (configuration not stated), for which the T/C is, setting by setting: under setting [5], 100 % of control; (dose: 100.0 mg/kg/injection, schedule: Q04DX003 (ip), vehicle: saline with Tween-80) 100 % of control; under setting [6], 91 % of control; (dose: 200.0 mg/kg/injection, schedule: Q04DX003 (ip), vehicle: saline with Tween-80) 110 % of control; (dose: 400.0 mg/kg/injection, schedule: Q01DX009 (ip), vehicle: saline with Tween-80) 108 % of control; (dose: 400.0 mg/kg/injection, schedule: Q04DX003 (ip), vehicle: saline with Tween-80) 115 % of control.
Consider `O=c1[nH]cnc2[nH]ccc12`, for which the T/C reads like this: (dose: 6.25 mg/kg/injection, schedule: Q01DX009 (ip), vehicle: saline with Tween-80) 99 % of control; under setting [7], 103 % of control; under setting [8], 96 % of control; under setting [9], 99 % of control.
Consider `CCN(C(=O)Nc1ccccc1)c1ccccc1`, for which the T/C was 104 % of control (dose: 100.0 mg/kg/injection, schedule: Q01DX001 (ip), vehicle: saline with Tween-80); 90 % of control (dose: 200.0 mg/kg/injection, schedule: Q01DX001 (ip), vehicle: saline with Tween-80); 95 % of control (dose: 400.0 mg/kg/injection, schedule: Q01DX001 (ip), vehicle: saline with Tween-80).
Turning to `O=C1NNC(c2ccccc2)C1(Cl)Cl` (configuration not stated), the T/C by setting is: under setting [7], 114 % of control; under setting [8], 99 % of control.
Turning to `Cc1cc(-c2ccc(NC(=O)c3cccc([N+](=O)[O-])c3)c(C)c2)ccc1NC(=O)c1cccc([N+](=O)[O-])c1`, the T/C (dose: 50.0 mg/kg/injection, schedule: Q01DX005 (ip), vehicle: saline with Tween-80) was 96 % of control; the T/C (dose: 100.0 mg/kg/injection, schedule: Q01DX005 (ip), vehicle: saline with Tween-80) was 94 % of control; the T/C (dose: 200.0 mg/kg/injection, schedule: Q01DX005 (ip), vehicle: saline with Tween-80) was 105 % of control.
In the case of `O=C1/C(=C\c2ccc(Cl)cc2)SC(=S)N1c1ccccc1`, the T/C by setting is: (dose: 37.5 mg/kg/injection, schedule: Q01DX009 (ip), vehicle: saline with Tween-80) 88 % of control; (dose: 75.0 mg/kg/injection, schedule: Q01DX009 (ip), vehicle: saline with Tween-80) 97 % of control; (dose: 150.0 mg/kg/injection, schedule: Q01DX009 (ip), vehicle: saline with Tween-80) 108 % of control.
In the case of `CCOC(=O)Nc1cc(NC(C)CCCN(CC)CC)c2ncc(-c3cc(OC)c(OC)c(OC)c3)nc2n1` (configuration not stated) (tested in a mixture with another compound), the T/C runs as follows: (dose: 25.0 mg/kg/injection, schedule: Q01DX009 (ip), vehicle: saline) 115 % of control; (dose: 50.0 mg/kg/injection, schedule: Q01DX009 (ip), vehicle: saline) 120 % of control; (dose: 50.0 mg/kg/injection, schedule: Q04DX003 (ip), vehicle: saline) 95 % of control; under setting [1], 109 % of control.
Turning to `O=C(O)CCCc1ccc(Oc2ccccc2)cc1`, the T/C was 92 % of control under setting [10], 93 % of control under setting [11] and 86 % of control under setting [12].
In the case of `O=C1C(CCO)SC(=S)N1c1ccccc1` (configuration not stated), the T/C reads like this: under setting [9], 106 % of control; under setting [5], 103 % of control; under setting [6], 102 % of control.
Take `C=C(COc1ccc(Cl)cc1)COc1ccc(Cl)cc1`: the T/C (dose: 50.0 mg/kg/injection, schedule: Q01DX001 (ip), vehicle: other) was 103 % of control; the T/C (dose: 50.0 mg/kg/injection, schedule: Q04DX003 (ip), vehicle: other) was 100 % of control; the T/C (dose: 100.0 mg/kg/injection, schedule: Q01DX001 (ip), vehicle: other) was 100 % of control; the T/C under setting [10] is 91 % of control; the T/C (dose: 200.0 mg/kg/injection, schedule: Q01DX001 (ip), vehicle: other) is 94 % of control; the T/C under setting [11] is 101 % of control. Moreover, the T/C was 102 % of control (dose: 400.0 mg/kg/injection, schedule: Q01DX001 (ip), vehicle: other) and 93 % of control under setting [12].
`Cc1ccc(C(CCC#N)OC(C)C)cc1` (configuration not stated): the T/C was 86 % of control under setting [4]; 100 % of control (dose: 100.0 mg/kg/injection, schedule: Q04DX003 (ip), vehicle: Klucel (hydroxypropylcellulose) (HPC)); 109 % of control under setting [2]; 109 % of control (dose: 200.0 mg/kg/injection, schedule: Q04DX003 (ip), vehicle: Klucel (hydroxypropylcellulose) (HPC)); 113 % of control under setting [3]; 109 % of control (dose: 400.0 mg/kg/injection, schedule: Q04DX003 (ip), vehicle: Klucel (hydroxypropylcellulose) (HPC)).
Regarding `CCOC(=O)C1CC2(CCC1N)c1ccccc1-c1ccccc12` (configuration not stated), the T/C by setting is: under setting [9], 102 % of control; under setting [5], 99 % of control; under setting [6], 108 % of control.
